What all share (format): biochemical
Common to all, as to settings: luminometer

For one assay, the target named is T1, TNIK (Homo sapiens, UniProt Q9UKE5).
T1 construct: purchased Promega V4158
The experiment in a line: TNIK inhibition, ADP-Glo Kinase Assay. How it is done: Inhibition activities on TNIK, IKKε and TBK1 were evaluated using the compounds of Examples 1 to 254.
The inhibition activities on TNIK, IKKε and TBK1 were measured by a luminometer, TNIK/IKKε/TBK1 Kinase Enzyme System (Promega, Ca# V4158; Invitrogen, PR8031B, Promega, Ca# V3991) and ADP-Glo Kinase Assay using ADP-Glo™ Kinase Analysis Kit (Promega, Ca# V9101) and a kinase reaction buffer [40 mM Tris(pH 7.5), 20 mM MgCl2, 0.1 mg/mL BSA] in accordance with the manufacturer's protocol.
On the technique in general: ADP-Glo turns the ADP formed in a reaction into a luminescent signal.

Another assay concerns the target T2, TBK1 (Homo sapiens, UniProt Q9UHD2).
T2 construct: purchased Promega V3991
T2 sequence (Q9UHD2 1-729): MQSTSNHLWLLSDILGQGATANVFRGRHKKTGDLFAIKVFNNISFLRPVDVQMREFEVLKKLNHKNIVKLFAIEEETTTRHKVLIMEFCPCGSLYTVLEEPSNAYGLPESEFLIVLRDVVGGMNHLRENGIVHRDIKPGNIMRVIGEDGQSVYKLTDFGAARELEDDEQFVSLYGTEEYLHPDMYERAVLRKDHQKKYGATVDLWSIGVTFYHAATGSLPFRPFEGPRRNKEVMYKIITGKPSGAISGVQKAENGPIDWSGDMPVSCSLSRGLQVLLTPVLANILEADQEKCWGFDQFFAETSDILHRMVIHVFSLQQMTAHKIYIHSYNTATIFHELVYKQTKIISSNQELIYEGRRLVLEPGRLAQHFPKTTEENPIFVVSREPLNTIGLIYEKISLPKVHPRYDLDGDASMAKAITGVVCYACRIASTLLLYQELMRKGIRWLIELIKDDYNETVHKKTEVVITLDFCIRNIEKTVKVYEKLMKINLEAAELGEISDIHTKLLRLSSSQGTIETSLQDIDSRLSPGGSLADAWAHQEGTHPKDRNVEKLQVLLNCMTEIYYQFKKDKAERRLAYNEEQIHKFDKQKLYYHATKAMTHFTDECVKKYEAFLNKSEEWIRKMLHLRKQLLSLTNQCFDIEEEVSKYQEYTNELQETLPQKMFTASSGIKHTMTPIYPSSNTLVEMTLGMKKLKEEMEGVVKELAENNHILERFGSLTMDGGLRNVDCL
The experiment in a line: TBK1 inhibition, ADP-Glo Kinase Assay. A digest of the protocol: (§1)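 Each recombinant kinase enzyme system was run per the manufacturer's protocol in 40 mM Tris pH 7.5, 20 mM MgCl2 and 0.1 mg/mL BSA. Kinase activity was detected as ADP formation by ADP-Glo luminescence.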

The target of the next assay is T3, IKKε (Homo sapiens, UniProt Q14164).
T3 construct: purchased Invitrogen PR8031B
T3 sequence (Q14164 1-716): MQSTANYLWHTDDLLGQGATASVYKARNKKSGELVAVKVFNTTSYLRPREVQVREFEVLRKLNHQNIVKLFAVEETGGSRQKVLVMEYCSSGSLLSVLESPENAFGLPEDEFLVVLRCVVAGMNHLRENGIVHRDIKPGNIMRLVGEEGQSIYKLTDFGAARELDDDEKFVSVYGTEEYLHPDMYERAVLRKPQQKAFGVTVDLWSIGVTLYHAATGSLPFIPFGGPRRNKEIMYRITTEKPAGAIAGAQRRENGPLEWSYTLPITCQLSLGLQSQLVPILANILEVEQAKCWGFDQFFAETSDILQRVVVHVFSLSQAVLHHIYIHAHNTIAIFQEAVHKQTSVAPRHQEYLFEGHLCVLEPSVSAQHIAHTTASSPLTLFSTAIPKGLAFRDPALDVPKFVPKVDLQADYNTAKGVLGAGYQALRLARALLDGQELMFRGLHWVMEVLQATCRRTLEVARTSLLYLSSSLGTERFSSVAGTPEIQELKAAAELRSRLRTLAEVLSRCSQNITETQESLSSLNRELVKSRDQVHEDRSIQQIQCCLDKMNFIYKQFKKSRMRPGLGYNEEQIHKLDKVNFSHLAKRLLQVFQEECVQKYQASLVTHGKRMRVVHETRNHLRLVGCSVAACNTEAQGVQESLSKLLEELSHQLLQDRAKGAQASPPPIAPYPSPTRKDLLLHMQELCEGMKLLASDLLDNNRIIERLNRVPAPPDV
The assay is described as follows: IKKε inhibition, ADP-Glo Kinase Assay. In a few lines:
as §1

Molecules are shown by their SMILES.

The term IC50 denotes the concentration that gives 50% inhibition.

T1 sequence (Q9UKE5 1-367 limits assumed): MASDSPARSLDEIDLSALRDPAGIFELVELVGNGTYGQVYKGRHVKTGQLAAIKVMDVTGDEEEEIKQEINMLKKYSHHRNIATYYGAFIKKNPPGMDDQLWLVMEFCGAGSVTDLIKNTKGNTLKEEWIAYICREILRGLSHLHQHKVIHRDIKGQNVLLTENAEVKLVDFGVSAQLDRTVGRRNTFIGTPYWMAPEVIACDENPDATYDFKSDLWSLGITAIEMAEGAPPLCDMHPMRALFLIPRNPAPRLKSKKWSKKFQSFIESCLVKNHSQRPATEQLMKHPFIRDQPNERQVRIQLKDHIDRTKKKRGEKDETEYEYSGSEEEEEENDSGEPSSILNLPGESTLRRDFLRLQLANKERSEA

In the case of `Cc1cnc(-c2cc3[nH]nc(NC(=O)c4ccc(N(C)C)cc4)c3s2)o1` [Example 223, 4-(dimethylamino)-N-(5-(5-methyloxazol-2-yl)-1H-thieno[3,2-c]pyrazol-3-yl)benzamide], the half-maximal inhibitory concentration (IC50) stood at 0.11 µM on TNIK and 0.094 µM against TBK1.

With `Cc1cnc(-c2cc3[nH]nc(NC(=O)c4ccc(NCCN5CCCCC5)cc4)c3s2)o1` [Example 224, N-(5-(5-methyloxazol-2-yl)-1H-thieno[3,2-c]pyrazol-3-yl)-4-((2-(piperidin-1-yl)ethyl)amino)benzamide], the figures for the IC50 against TNIK, against TBK1 and at IKKε were 0.085 µM, 0.12 µM and 0.32 µM, respectively.

`Cc1cnc(-c2cc3[nH]nc(NC(=O)c4ccc(N5CCN(C)CC5)cc4)c3s2)o1` [Example 225, N-(5-(5-methyloxazol-2-yl)-1H-thieno[3,2-c]pyrazol-3-yl)-4-(4-methylpiperazin-1-yl)benzamide]: the IC50 stood at 0.049 µM on TNIK, 0.13 µM against TBK1 and 0.35 µM against IKKε.

Regarding `Cc1cnc(-c2cc3[nH]nc(NC(=O)c4ccc(NCCN5CCCC5)cc4)c3s2)o1` [Example 226, N-(5-(5-methyloxazol-2-yl)-1H-thieno[3,2-c]pyrazol-3-yl)-4-((2-(pyrrolidin-1-yl)ethyl)amino)benzamide], the concentration for half-maximal inhibition (IC50) amounted to 0.15 µM against TNIK and 0.12 µM against TBK1.

Consider `Cc1cnc(-c2cc3[nH]nc(NC(=O)c4ccc(NCCN5CCOCC5)cc4)c3s2)o1` [Example 227, N-(5-(5-methyloxazol-2-yl)-1H-thieno[3,2-c]pyrazol-3-yl)-4-((2-morpholinoethyl)amino)benzamide], for which the values for the IC50 against TNIK and at TBK1 were 0.085 µM and 0.12 µM, respectively.

For `Cc1cnc(-c2cc3[nH]nc(NC(=O)c4ccc(NCCO)cc4)c3s2)o1` [Example 228, 4-((2-hydroxyethyl)amino)-N-(5-(5-methyloxazol-2-yl)-1H-thieno[3,2-c]pyrazol-3-yl)benzamide], the IC50 on TNIK was 0.11 µM; at TBK1, 0.12 µM.

Take `COCCNc1ccc(C(=O)Nc2n[nH]c3cc(-c4ncc(C)o4)sc23)cc1` [Example 229, 4-((2-methoxyethyl)amino)-N-(5-(5-methyloxazol-2-yl)-1H-thieno[3,2-c]pyrazol-3-yl)benzamide]: the values for the IC50 against TNIK and at TBK1 were 0.15 µM and 0.14 µM, respectively.

Consider `Cc1cnc(-c2cc3[nH]nc(NC(=O)c4cccc(F)c4)c3s2)o1` [Example 230, 3-fluoro-N-(5-(5-methyloxazol-2-yl)-1H-thieno[3,2-c]pyrazol-3-yl)benzamide], for which the results for the concentration for half-maximal inhibition (IC50) against TNIK and on TBK1 were 0.66 µM and 1.7 µM, respectively.

With `COC(=O)c1cc2[nH]nc(-c3ccc(OC)cc3)c2s1` [Example 231, methyl 3-(4-methoxyphenyl)-1H-thieno[3,2-c]pyrazole-5-carboxylate], the IC50 was 0.54 µM against TNIK and more than 10 µM against TBK1.

As for `CCNC(=O)c1cc2[nH]nc(-c3ccc(OC)cc3)c2s1` [Example 232, N-ethyl-3-(4-methoxyphenyl)-1H-thieno[3,2-c]pyrazole-5-carboxamide], the 50% inhibitory concentration (IC50) at TNIK was 1.95 µM; at TBK1, more than 10 µM.

For the molecule `COc1ccc(-c2n[nH]c3cc(C(=O)NC(C)C)sc23)cc1` [Example 233, N-isopropyl-3-(4-methoxyphenyl)-1H-thieno[3,2-c]pyrazole-5-carboxamide], the IC50 was 2.86 µM at TNIK and more than 10 µM against TBK1.

Turning to `COc1ccc(-c2n[nH]c3cc(-c4ncc(C)o4)sc23)cc1` [Example 235, 2-(3-(4-methoxyphenyl)-1H-thieno[3,2-c]pyrazol-5-yl)-5-methyloxazole], the IC50 on TNIK was 0.34 µM; on TBK1, more than 10 µM.

For `COC(=O)c1cc2[nH]nc(-c3ccccc3)c2s1` [Example 236, methyl 3-phenyl-1H-thieno[3,2-c]pyrazole-5-carboxylate], the IC50 on TNIK is 1.27 µM; at TBK1 it was more than 10 µM.

Regarding `COC(=O)c1cc2[nH]nc(-c3ccc(F)cc3)c2s1` [Example 239, methyl 3-(4-fluorophenyl)-1H-thieno[3,2-c]pyrazole-5-carboxylate], the IC50 on TNIK is 0.86 µM; against TBK1, more than 10 µM.

Consider `CCNC(=O)c1cc2[nH]nc(-c3ccc(F)cc3)c2s1` [Example 240, N-ethyl-3-(4-fluorophenyl)-1H-thieno[3,2-c]pyrazole-5-carboxamide], for which the values for the half-maximal inhibitory concentration (IC50) against TNIK and at TBK1 were 2.85 µM and more than 10 µM, respectively.

As for `CCNC(=O)c1cc2[nH]nc(-c3ccc(N4CCOCC4)cc3)c2s1` [Example 241, N-ethyl-3-(4-morpholinophenyl)-1H-thieno[3,2-c]pyrazole-5-carboxamide], the IC50 was 1.09 µM on TNIK and more than 10 µM at TBK1.

Take `O=C(NCCN1CCOCC1)c1cc2[nH]nc(-c3ccc(F)cc3)c2s1` [Example 242, 3-(4-fluorophenyl)-N-(2-morpholinoethyl)-1H-thieno[3,2-c]pyrazole-5-carboxamide]: the concentration for half-maximal inhibition (IC50) is more than 20 µM at TNIK and more than 10 µM at TBK1.

For the molecule `Cc1cnc(-c2cc3[nH]nc(-c4ccc(N5CCOCC5)cc4)c3s2)o1` [Example 243, 4-(4-(5-(5-methyloxazol-2-yl)-1H-thieno[3,2-c]pyrazol-3-yl)phenyl)morpholine], the results for the 50% inhibitory concentration (IC50) on TNIK and against TBK1 were 0.15 µM and more than 10 µM, respectively.

`Cc1cnc(-c2cc3[nH]nc(NC(=O)c4ccc(N(C)C)cc4)c3s2)s1` [Example 251, 4-(dimethylamino)-N-(5-(5-methylthiazol-2-yl)-1H-thieno[3,2-c]pyrazol-3-yl)benzamide]: the concentration for half-maximal inhibition (IC50) against TNIK was 0.25 µM; against TBK1 it was 1.4 µM.

Regarding `CCc1cnc(-c2cc3[nH]nc(NC(=O)c4ccc(N5CCOCC5)cc4)c3s2)s1` [Example 252, N-(5-(5-ethylthiazol-2-yl)-1H-thieno[3,2-c]pyrazol-3-yl)-4-morpholinobenzamide], the concentration for half-maximal inhibition (IC50) came out at 0.41 µM at TNIK and 1.3 µM against TBK1.

For `Cc1cnc(-c2cc3[nH]nc(NC(=O)c4ccc(NCCN5CCCCC5)cc4)c3s2)s1` [Example 253, N-(5-(5-methylthiazol-2-yl)-1H-thieno[3,2-c]pyrazol-3-yl)-4-((2-(piperidin-1-yl)ethyl)amino)benzamide], the half-inhibitory concentration (IC50) amounted to 0.28 µM on TNIK and 0.62 µM at TBK1.

For the molecule `COC(=O)c1cc2[nH]nc(-c3ccc(N4CCOCC4)cc3)c2s1` [Example 254, methyl 3-(4-morpholinophenyl)-1H-thieno[3,2-c]pyrazole-5-carboxylate], the IC50 was 0.3 µM against TNIK and more than 10 µM on TBK1.

The values above are taken from patent US10294207B2, “Pyrazole derivatives as TNIK, IKKϵ and TBK1 inhibitor and pharmaceutical composition comprising same” (GREEN CROSS CORPORATION, priority 2015, dated 2019).
